Earlier results on three compounds are cited in publication PMC8113538, “Acute toxicity analysis of an inhibitor of BCL2, Disarib, in rats” (Scientific Reports, 2021).

The conditions of series [1]: cited from earlier work.
For series [2] the following is noted: cited from earlier work; for solubility in organic solvents: DMSO and Dimethylformamide.
On the set-up of series [3]: method as in EMA Venclyxto public assessment report, 16. The following applies: monkey; ref EMA Venclyxto public assessment report, 16; cited from earlier work.
On the set-up of series [4]: method as in EMA Venclyxto public assessment report, 16. The following applies: dogs; ref EMA Venclyxto public assessment report, 16; cited from earlier work.
A further series has as its system platelets. Further details: method as in PMID 26589495. The following applies: clinical trials; cited from earlier work.
A further series has as its system circulating platelets. Further details: method as in PMID 26589495, PMID 21094089, PMID 17205078. The following applies: preclinical studies; cited from earlier work.
The conditions of series [5]: rats; cited from earlier work.

Like-named read-outs stand apart in the source and are kept apart here.

`CC1(C)CCC(CN2CCN(c3ccc(C(=O)NS(=O)(=O)c4ccc(NCC5CCOCC5)c([N+](=O)[O-])c4)c(Oc4cnc5[nH]ccc5c4)c3)CC2)=C(c2ccc(Cl)cc2)C1` [ABT199]: in series [1], the “oral bioavailability (in words)” value is reported as “orally bioavailable”. For the same compound, in series [2], the “solubility in organic solvents” value was “showed solubility in organic solvents such as DMSO and Dimethylformamide”; the “solubility in absolute ethanol” value is recorded as “soluble in absolute ethanol”; the “solubility in aqueous buffers” value is on record as “minimal”. The half life in series [3] is listed as 2.2 h. Moreover, in series [4], the half life was 12 h. In the series on platelets, the “toxic effect on platelets” value was “no toxic effect on platelets”.

With `CC1(C)CCC(c2ccc(Cl)cc2)=C(CN2CCN(c3ccc(C(=O)NS(=O)(=O)c4ccc(N[C@H](CCN5CCOCC5)CSc5ccccc5)c(S(=O)(=O)C(F)(F)F)c4)cc3)CC2)C1` [ABT263], in series [1], the “oral bioavailability (in words)” value is reported as “orally bioavailable” and the plasma clearance entry is listed as “low plasma clearance value”. Further, in series [2], the “solubility in organic solvents” value is “showed solubility in organic solvents such as DMSO and Dimethylformamide”; the “solubility in absolute ethanol” value was “soluble in absolute ethanol”; the “solubility in aqueous buffers” value is reported as “minimal”. The “number of circulating platelets” value in the series with circulating platelets is “rapid and concentration-dependent decrease in the number of circulating platelets”. Further, in series [5], the bioavailability was ~ 20%.

As to `CN(C)CC[C@H](CSc1ccccc1)Nc1ccc(S(=O)(=O)NC(=O)c2ccc(N3CCN(Cc4ccccc4-c4ccc(Cl)cc4)CC3)cc2)cc1[N+](=O)[O-]` [ABT737], in series [1], the “oral bioavailability (in words)” value is “not orally bioavailable” and the plasma clearance entry is listed as “low plasma clearance value”. Moreover, in series [2], the “solubility in organic solvents” value is “showed solubility in organic solvents such as DMSO and Dimethylformamide”; the “solubility in aqueous buffers” value is listed as “minimal”. The “number of circulating platelets” value in the series with circulating platelets is “rapid and concentration-dependent decrease in the number of circulating platelets”.
